In patent publication US11912683B1 (priority 2023, dated 2024):
Values after ≈ are worked out from the molar mass of the structure shown.

System: multidrug-resistant (MDR) strains of Mycobacterium tuberculosis
Assay: microbe, parasite or virus in culture
Assay type: cell-based
Details: 192 h, read-out: Anti-tubercular activity against Mycobacterium tuberculosis MDR (MIC)

Compared with `CC1=C(C(=O)N2CCCCC2)C(c2ccccc2)NC(=S)N1` (stereo not shown) [DHPM-KN1, (6-Methyl-4-phenyl-2-thioxo-1,2,3,4-tetrahydropyrimidin-5-yl)(piperidin-1-yl)methanone], `CC1=C(C(=O)N2CCCCC2)C(c2ccccc2C)NC(=S)N1` (stereo not shown) [DHPM-KN8, (6-Methyl-2-thioxo-4-(o-tolyl)-1,2,3,4-tetrahydropyrimidin-5-yl)(piperidin-1-yl)methanone] is 4-fold higher in MIC: 64 µg/mL (≈ 203 µM) for the first, 256 µg/mL (≈ 777 µM) for the second.

First: COC(=O)C1=C(C)NC(=O)NC1c1ccc([N+](=O)[O-])cc1[N+](=O)[O-] (stereo not shown) [DHPM-KN4, Methyl 4-(2,4-dinitrophenyl)-6-methyl-2-oxo-1,2,3,4-tetrahydropyrimidine-5-carboxylate]
Second: CC1=C(C(=O)N2CCCCC2)C(c2ccc([N+](=O)[O-])cc2)NC(=S)N1 (stereo not shown) [DHPM-KN5, (6-Methyl-4-(4-nitrophenyl)-2-thioxo-1,2,3,4-tetrahydropyrimidin-5-yl)(piperidin-1-yl)methanone]
The MIC of the first is 2-fold higher: 64 µg/mL (≈ 190 µM) for the first, 32 µg/mL (≈ 88.8 µM) for the second.

Going from `CC1=C(C(=O)N2CCCCC2)C(c2ccc(Br)cc2)NC(=S)N1` (stereo not shown) [DHPM-KN6, (4-(4-Bromophenyl)-6-methyl-2-thioxo-1,2,3,4-tetrahydropyrimidin-5-yl)(piperidin-1-yl)methanone] to `COc1ccc(C2NC(=S)NC(C)=C2C(=O)N2CCCCC2)cc1` (stereo not shown) [DHPM-KN7, (4-(4-Methoxyphenyl)-6-methyl-2-thioxo-1,2,3,4-tetrahydropyrimidin-5-yl)(piperidin-1-yl)methanone], the MIC rises from 128 µg/mL (≈ 325 µM) to 256 µg/mL (≈ 741 µM) (2-fold).

With `CC1=C(C(=O)N2CCCCC2)C(c2ccc(C(F)(F)F)cc2)NC(=S)N1` (stereo not shown) [DHPM-KN10, (6-Methyl-2-thioxo-4-(4-(trifluoromethyl)phenyl)-1,2,3,4-tetrahydropyrimidin-5-yl)(piperidin-1-yl)methanone] the MIC was 256 µg/mL (≈ 668 µM).
